Assay [1] relates to JAK2-dependent nuclear translocation of STAT5-GFP in U-2 OS osteosarcoma cells. Put plainly: STAT5 nuclear translocation assay (Cellomics), rhEpo stimulated U-2 OS STAT5-GFP cells. The class given is cell-based. The settings on record: Homo sapiens, U2OS; STAT5 translocation pathway. An outline of the steps:
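U-2 OS cells stably expressing STAT5a-GFP and EpoR pre-treated with compound (final 10 μM to 0.003 μM, 0.1% DMSO) for 30 min at 37° C., then stimulated 1 h with 5 U/ml rhEpo. Nuclear-cytoplasmic GFP differential quantified by automated imaging (≥1000 cells/well, Hoechst nuclear mask). IC50 from % translocation normalized to untreated and DMSO-stimulated controls.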

Another assay has as its target T1, GST-JAK2(808-1132) (Homo sapiens, UniProt O60674).
T1 construct: GST-JAK2(808-1132); purchased Invitrogen (Carlsbad, USA) #4288
Put plainly: JAK2 kinase assay (Caliper mobility shift, LabChip 3000). Type of assay: biochemical. An outline of the steps: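 Recombinant GST-JAK2(808-1132) kinase domain with FITC-labelled JAK3tide peptide substrate and ATP; 60 min at 30 °C, EDTA stop. Substrate/product ratio read by microfluidic mobility shift; compounds at 8 final concentrations, 10 to 0.003 μM.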

Consider 24 compounds from patent US8420657B2 (Novartis AG, priority 2008, dated 2013).

T1 sequence (O60674 808-1132): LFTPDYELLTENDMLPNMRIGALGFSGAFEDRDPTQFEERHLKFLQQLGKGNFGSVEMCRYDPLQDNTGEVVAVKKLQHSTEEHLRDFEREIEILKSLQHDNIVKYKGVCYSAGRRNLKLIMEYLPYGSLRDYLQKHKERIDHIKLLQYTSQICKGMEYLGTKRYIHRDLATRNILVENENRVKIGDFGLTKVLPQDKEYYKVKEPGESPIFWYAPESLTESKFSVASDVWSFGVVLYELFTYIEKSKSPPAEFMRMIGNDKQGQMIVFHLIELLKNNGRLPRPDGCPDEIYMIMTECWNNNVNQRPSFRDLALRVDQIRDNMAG

The IC50 is the midpoint of a concentration-inhibition curve. With `Cc1cc(Nc2ncc3ccn(-c4cc(F)c(CN5CCOCC5=O)c(F)c4)c3n2)cnc1N1C[C@@H](C)N[C@@H](C)C1` [Example 483, 4-(4-{2-[6-(cis-3,5-Dimethyl-piperazin-1-yl)-5-methyl-pyridin-3-ylamino]-pyrrolo[2,3-d]pyrimidin-7-yl}-2,6-difluoro-benzyl)-morpholin-3-one], the IC50 in assay [1] is 12.3 nM; at GST-JAK2(808-1132), at most 3 nM.
For `C[C@@H]1CN(Cc2ccc(Nc3ncc4ccn(-c5cc(F)c(CN6CCOCC6=O)c(F)c5)c4n3)cc2)C[C@H](C)N1` [Example 484, 4-(4-{2-[4-(cis-3,5-Dimethyl-piperazin-1-ylmethyl)-phenylamino]-pyrrolo[2,3-d]pyrimidin-7-yl}-2,6-difluoro-benzyl)-morpholin-3-one], the IC50 in assay [1] was 67 nM; on GST-JAK2(808-1132) it was at most 3 nM.
For `Cc1ccc(Nc2ncc3ccn(-c4cc(F)c(CN5CCOCC5=O)c(F)c4)c3n2)cc1CN1CCNCC1` [Example 485, 4-{2,6-Difluoro-4-[2-(4-methyl-3-piperazin-1-ylmethyl-phenylamino)-pyrrolo[2,3-d]pyrimidin-7-yl}-benzyl]-morpholin-3-one], in that order: 110 nM and at most 3 nM.
The corresponding values for `Fc1cc(-n2ccc3cnc(Nc4ccc(CN5CCNCC5)nc4)nc32)cc(F)c1CN1CCOCC1` [Example 486, [7-(3,5-Difluoro-4-morpholin-4-yl methyl-phenyl)-7H-pyrrolo[2,3-d]pyrimidin-2-yl]-(6-piperazin-1-ylmethyl-pyridin-3-yl)-amine] are 487 nM and at most 3 nM.
For `Cc1cc(Nc2ncc3ccn(-c4cc(F)c(CN5CCOCC5)c(F)c4)c3n2)cnc1N1CCNCC1` [Example 487, [7-(3,5-Difluoro-4-morpholin-4-ylmethyl-phenyl)-7H-pyrrolo[2,3-d]pyrimidin-2-yl]-(5-methyl-6-piperazin-1-yl-pyridin-3-yl)-amine], in that order: 5.8 nM and at most 3 nM.
In the case of `Cc1cc(Nc2ncc3ccn(-c4cc(F)c(CN5CCOCC5)c(F)c4)c3n2)cnc1N1CCNC(C)(C)C1` [Example 488, [7-(3,5-Difluoro-4-morpholin-4-ylmethyl-phenyl)-7H-pyrrolo[2,3-d]pyrimidin-2-yl]-[6-(dimethyl-piperazin-1-yl)-5-methyl-pyridin-3-yl]-amine], the IC50 was 40.5 nM in assay [1] and at most 3 nM on GST-JAK2(808-1132).
For `C[C@@H]1CN(c2ncc(Nc3ncc4ccn(-c5cc(F)c(CN6CCOCC6)c(F)c5)c4n3)cc2Cl)C[C@H](C)N1` [Example 489, [5-Chloro-6-(cis-3,5-dimethyl-piperazin-1-yl)-pyridin-3-yl]-[7-(3,5-difluoro-4-morpholin-4-ylmethyl-phenyl)-7H-pyrrolo[2,3-d]pyrimidin-2-yl]-amine], in that order: 12 nM and 0.7 nM.
The corresponding values for `C[C@@H]1CN(c2ncc(Nc3ncc4ccn(-c5cc(F)c(CN6CCOCC6)c(F)c5)c4n3)cc2C#N)C[C@H](C)N1` [Example 490, 5-[7-(3,5-Difluoro-4-morpholin-4-ylmethyl-phenyl)-7H-pyrrolo[2,3-d]pyrimidin-2-ylamino]-2-(cis-3,5-dimethyl-piperazin-1-yl)-nicotinonitrile] are 14 nM and 3.4 nM.
Turning to `O=C1CN(c2ncc(Nc3ncc4ccn(-c5cc(F)c(CN6CCOCC6)c(F)c5)c4n3)cc2Cl)CCN1` [Example 491, 4-{3-Chloro-5-[7-(3,5-difluoro-4-morpholin-4-ylmethyl-phenyl)-7H-pyrrolo[2,3-d]pyrimidin-2-ylamino]-pyridin-2-yl}-piperazin-2-one], the half-maximal inhibitory concentration (IC50) in assay [1] is 15 nM; at GST-JAK2(808-1132) it was at most 3 nM.
The corresponding values for `CC1(C)NCCN(c2ccc(Nc3ncc4ccn(-c5cc(F)c(CN6CCOCC6)c(F)c5)c4n3)cn2)C1=O` [Example 492, 1-{5-[7-(3,5-Difluoro-4-morpholin-4-ylmethyl-phenyl)-7H-pyrrolo[2,3-d]pyrimidin-2-ylamino]-pyridin-2-yl}-3,3-dimethyl-piperazin-2-one] are 55.5 nM and 2.2 nM.
Regarding `Cc1cc(Nc2ncc3ccn(-c4cc(F)c(CN5CCOCC5)c(F)c4)c3n2)cnc1N1CCNC(C)(C)C1=O` [Example 493, 1-{5-[7-(3,5-Difluoro-4-morpholin-4-ylmethyl-phenyl)-7H-pyrrolo[2,3-d]pyrimidin-2-ylamino]-3-methyl-pyridin-2-yl}-3,3-dimethyl-piperazin-2-one], the half-inhibitory concentration (IC50) in assay [1] was 104 nM; on GST-JAK2(808-1132), at most 3 nM.
The corresponding values for `CN1CCN(Cc2cc(Nc3ncc4ccn(-c5cc(F)c(CN6CCOCC6)c(F)c5)c4n3)ccc2Cl)CC1` [Example 494, [4-Chloro-3-(4-methyl-piperazin-1-yl methyl)-phenyl]-[7-(3,5-difluoro-4-morpholin-4-ylmethyl-phenyl)-7H-pyrrolo[2,3-d]pyrimidin-2-yl]-amine] are 394 nM and at most 3 nM.
The corresponding values for `Cc1cc(Nc2ncc3ccn(-c4cc(F)c(CN5CCOCC5)c(F)c4)c3n2)cnc1N1CCNCC1=O` [Example 495, 1-{5-[7-(3,5-Difluoro-4-morpholin-4-ylmethyl-phenyl)-7H-pyrrolo[2,3-d]pyrimidin-2-ylamino]-3-methyl-pyridin-2-yl}-piperazin-2-one] are 51 nM and at most 3 nM.
The corresponding values for `C[C@@H]1CN(c2ncc(Nc3ncc4ccn(-c5cc(F)c(CN6CCOCC6)c(F)c5)c4n3)cc2C(F)(F)F)C[C@H](C)N1` [Example 496, [7-(3,5-Difluoro-4-morpholin-4-ylmethyl-phenyl)-7H-pyrrolo[2,3-d]pyrimidin-2-yl]-[6-(cis-3,5-dimethyl-piperazin-1-yl)-5-trifluoromethyl-pyridin-3-yl]-amine] are 97.2 nM and at most 3 nM.
On to `COc1cc(Nc2ncc3ccn(-c4cc(F)c(CN5CCOCC5)c(F)c4)c3n2)cnc1N1C[C@@H](C)N[C@@H](C)C1` [Example 497, [7-(3,5-Difluoro-4-morpholin-4-ylmethyl-phenyl)-7H-pyrrolo[2,3-d]pyrimidin-2-yl]-[6-(cis-3,5-dimethyl-piperazin-1-yl)-5-methoxy-pyridin-3-yl]-amine], for which the IC50 is 7.7 nM in assay [1] and at most 3 nM on GST-JAK2(808-1132).
Regarding `O=C1CNCCN1Cc1ccc(Nc2ncc3ccn(-c4cc(F)c(CN5CCOCC5)c(F)c4)c3n2)cc1` [Example 498, 1-{4-[7-(3,5-Difluoro-4-morpholin-4-ylmethyl-phenyl)-7H-pyrrolo[2,3-d]pyrimidin-2-ylamino]-benzyl}-piperazin-2-one], the half-inhibitory concentration (IC50) in assay [1] is 83 nM; at GST-JAK2(808-1132) it was at most 3 nM.
The corresponding values for `C[C@@H]1CN(c2ccc(Nc3ncc4ccn(-c5ccc(C(=O)N6CCOCC6)c(F)c5)c4n3)cn2)C[C@H](C)N1` [Example 499, (4-{2-[6-(cis-3,5-Dimethyl-piperazin-1-yl)-pyridin-3-ylamino]-pyrrolo[2,3-d]pyrimidin-7-yl}-2-fluoro-phenyl)-morpholin-4-yl-methanone] are 220 nM and 4.8 nM.
As to `O=C1CN(c2cc(Nc3ncc4ccn(-c5cc(F)c(CN6CCOCC6)c(F)c5)c4n3)ccn2)CCN1` [Example 500, 4-{4-[7-(3,5-Difluoro-4-morpholin-4-ylmethyl-phenyl)-7H-pyrrolo[2,3-d]pyrimidin-2-ylamino]-pyridin-2-yl}-piperazin-2-one], the 50% inhibitory concentration (IC50) in assay [1] is 16 nM; on GST-JAK2(808-1132), at most 3 nM.
The corresponding values for `Fc1cc(-n2ccc3cnc(Nc4ccc(C5CCNCC5)nc4)nc32)cc(F)c1CN1CCOCC1` [Example 501, [7-(3,5-Difluoro-4-morpholin-4-ylmethyl-phenyl)-7H-pyrrolo[2,3-d]pyrimidin-2-yl]-(1,2′,3′,4′,5′,6′-hexahydro-[2,4′]bipyridinyl-5-yl)-amine] are 38 nM and at most 3 nM.
For `Fc1cc(-n2ccc3cnc(Nc4cnc(N5CCNCC5)c(Cl)c4)nc32)cc(F)c1CN1CCOCC1` [Example 502, (5-Chloro-6-piperazin-1-yl-pyridin-3-yl)-[7-(3,5-difluoro-4-morpholin-4-ylmethyl-phenyl)-7H-pyrrolo[2,3-d]pyrimidin-2-yl]-amine], in that order: 17 nM and at most 3 nM.
The corresponding values for `CN1CCN(c2cc(Nc3ncc4ccn(-c5cc(F)c(CN6CCOCC6)c(F)c5)c4n3)ccn2)CC1=O` [Example 504, 4-{4-[7-(3,5-Difluoro-4-morpholin-4-ylmethyl-phenyl)-7H-pyrrolo[2,3-d]pyrimidin-2-ylamino]-pyridin-2-yl}-1-methyl-piperazin-2-one] are 81.5 nM and at most 3 nM.
`CN1CCN(Cc2ccc(Nc3ncc4ccn(-c5cc(F)c(CN6CCOCC6)c(F)c5)c4n3)cn2)CC1=O` [Example 505, 4-{5-[7-(3,5-Difluoro-4-morpholin-4-methyl-phenyl)-7H-pyrrolo[2,3-d]pyrimidin-2-ylamino]-pyridin-2-ylmethyl}-1-methyl-piperazin-2-one]: the results for the IC50 (in assay [1]; at GST-JAK2(808-1132)) were 60 nM and 4.1 nM, respectively.
As to `Fc1cc(-n2ccc3cnc(Nc4cccc([C@H]5COCCN5)c4)nc32)cc(F)c1CN1CCOCC1` [Example 507, [7-(3,5-Difluoro-4-morpholin-4-ylmethyl-phenyl)-7H-pyrrolo[2,3-d]pyrimidin-2-yl]-((S)-3-morpholin-3-yl-phenyl)-amine], the values for the IC50 (in assay [1]; on GST-JAK2(808-1132)) were 0.2 nM and below 3 nM, respectively.
For the compound `CCN1CCOC[C@@H]1c1ccc(Nc2ncc3ccn(-c4cc(F)c(CN5CCOCC5)c(F)c4)c3n2)cc1` [Example 508, [7-(3,5-Difluoro-4-morpholin-4-ylmethyl-phenyl)-7H-pyrrolo[2,3-d]pyrimidin-2-yl]-[4-((S)-4-ethyl-morpholin-3-yl)-phenyl]-amine], the IC50 in assay [1] came to 14.8 nM; on GST-JAK2(808-1132) it was 4.1 nM.
